Measured values from patent US5250428A, “L-gulono-gamma-lactone-dehydrogenase for producing vitamin C” (Hoffmann-La Roche Inc., priority 1990, dated 1993).
Several values for one entry are separate records, joined by “and”; a condition that tells them apart may be missing. Identical values can stand only once.

What was measured:
[1] = test system: L-gulono-gamma-lactone dehydrogenase (GLDH); experiment: Effect of metal ions on GLDH enzyme activity; assay type: biochemical, Gluconobacter oxydans DSM 4025
Description: The enzyme assay was performed at 25° C. by measuring the decrease of absorbance at 600 nm of DCIP spectrophotometrically. One unit of enzyme activity was defined as the amount of enzyme which catalyzed the reduction of 1 μmole of DCIP per minute. […] A reference cuvette contained all components except L-gulono gamma-lactone. The reaction was started by the addition of L-gulono-gamma-lactone. Enzyme activity was measured as the initial reduction rate of DCIP.
Using the same enzyme assay method as described under 1), the effect of various metal ions on the enzyme activity was examined.

[2] = test system: L-gulono-gamma-lactone dehydrogenase (GLDH); experiment: Effect of inhibitors on GLDH enzyme activity; assay type: biochemical, Gluconobacter oxydans DSM 4025
Description: (§1) The enzyme assay was performed at 25° C. by measuring the decrease of absorbance at 600 nm of DCIP spectrophotometrically. One unit of enzyme activity was defined as the amount of enzyme which catalyzed the reduction of 1 μmole of DCIP per minute. The extinction coefficient of DCIP at pH 7.0 was taken as 14.5 mM^-1. A cuvette with 1 cm light path contained 0.16 mM DCIP, 1.6 mM phenazine methosulfate, 200 mM potassium phosphate buffer, 400 mM L-gulono-gamma-lactone, enzyme solution and water in a final volume of 0.5 ml. A reference cuvette contained all components except L-gulono gamma-lactone. The reaction was started by the addition of L-gulono-gamma-lactone. Enzyme activity was measured as the initial reduction rate of DCIP.
Using the same enzyme assay method as described above, the effect of various inhibitors on the enzyme activity was examined. No compounds tested gave an inhibitory effect on the GLDH.

[3] = test system: L-gulono-gamma-lactone dehydrogenase (GLDH); settings: conversion of L-gulono-gamma-lactone to L-ascorbic acid
[4] = test system: L-gulono-gamma-lactone dehydrogenase (GLDH); experiment: Measurement of the Km value (DCIP enzyme assay); assay type: biochemical, Gluconobacter oxydans DSM 4025
Description: as §1
Using the same enzyme assay method as described above, the rate of the oxidizing reaction with varying the concentrations of L-gulono-gamma lactone from 0.18 mM to 90 mM was measured to determine the Km value for L-gulono-gamma-lactone.

[5] = test system: L-gulono-gamma-lactone dehydrogenase (GLDH); experiment: Substrate specificity of GLDH (DCIP reduction enzyme assay); assay type: biochemical, Gluconobacter oxydans DSM 4025; settings: substrate 400 mM; for Relative activity (%): 25° C., DCIP/PMS, L-gulono-gamma-lactone = 100
Description: as §1
Substrate specificity of the enzyme was determined using the same enzyme assay method as described as above except that the various substrate solutions (400 mM) were used instead of L-gulono-gamma-lactone.

| Compound | Relative activity (%) ([1]; metal 0.19 mM) | Relative activity (%) ([1]; metal 0.38 mM) | Relative activity (%) ([1]; metal 0.89 mM) | other results |
| --- | --- | --- | --- | --- |
| Fe(SO4)3.xH2 O | 104 | 92 | 76 | – |
| [F-].[Na+] [Sodium fluoride] | – | – | – | Relative activity (%) ([2]; inhibitor 0.96 mM): 107.1%; Relative activity (%) ([2]; inhibitor 1.89 mM): 114.3%; Relative activity (%) ([2]; inhibitor 4.46 mM): 97.6% |
| O=O [oxygen] | – | – | – | enzyme activity with oxygen as electron acceptor [3]: lack of enzyme catalyzing activity |
| MnSO4.4-6H2 O | 100 | 0 | 0 | – |
| O=C1O[C@H]([C@@H](O)CO)[C@H](O)[C@@H]1O [L-Gulono-r-lactone, L-gulono-gamma-lactone] | – | – | – | Km ([4]; DCIP as the electron acceptor, substrate 0.18 mM to 90 mM, read-out: apparent Michaelis constant (Km)): 34.8 mM; substrate concentration of maximum reaction rate ([4]; substrate varied 0.18 mM to 90 mM): about 71.8 mM; activity of GLDH on substrate [5]: highly active; Relative activity (%) [5]: 100% |
| O=C1O[C@H](CO)[C@@H](O)[C@H](O)[C@H]1O [D-Glucono-δ-lactone] | – | – | – | Relative activity (%) [5]: 0% |
| O=C[C@H](O)[C@@H](O)[C@H](O)[C@H](O)CO [D-Glucose] | – | – | – | activity of GLDH on substrate [5]: weakly active; Relative activity (%) [5]: 23.4% |
| O.O.[Na+].[Na+].[O]=[Mo](=[O])([O-])[O-] [Na2 MoO4.2H2 O] | 104 | 96 | 88 | – |
| TiCl | 88 | 92 | 80 | – |
| O=C[C@@H](O)[C@@H](O)[C@H](O)[C@H](O)CO [D-Mannose] | – | – | – | activity of GLDH on substrate [5]: weakly active; Relative activity (%) [5]: 7.23% |
| O=C(O)CI [Monoiodoacetate] | – | – | – | Relative activity (%) [2]: 104.8% and 100% and 92.9% |
| Cl.NO [Hydroxylamine hydrocloride] | – | – | – | Relative activity (%) ([2]; inhibitor 1.0 mM): 100%; Relative activity (%) ([2]; inhibitor 2.0 mM): 100% |
| O.O.O.O.O.O=S(=O)([O-])[O-].[Cu+2] [CuSO4.5H2 O] | 80 | 20 | 0 | – |
| O.O.O.O=[N+]([O-])[O-].O=[N+]([O-])[O-].[Cu+2] [Cu(NO3)2.3H2 O] | 88 | 24 | 0 | – |
| O.O.O.O.[Cl][Mn][Cl] [MnCl2.4H2 O] | 100 | 0 | 0 | – |
| [Mn+2] [Mn^2+] | – | – | – | inhibition of the enzyme by metal ion [1]: strong inhibition |
| O=C[C@H](O)[C@@H](O)[C@H](O)[C@H](O)C(=O)O [D-Glucuronic acid] | – | – | – | Relative activity (%) [5]: 0% |
| O.O.O.O.O.O.O.O=[As]([O-])([O-])O.[Na+].[Na+] [Na2 HAsO4 7H2 O] | – | – | – | Relative activity (%) ([2]; inhibitor 0.96 mM): 95.2%; Relative activity (%) ([2]; inhibitor 1.89 mM): 104.8%; Relative activity (%) ([2]; inhibitor 4.46 mM): 97.6% |
| O.O.[Cl][Cu][Cl] [CuCl2.2H2 O] | 84 | 8 | 0 | – |
| [Ca+2].[Cl-].[Cl-] [CaCl2] | 96 | 104 | 96 | – |
| O=C(O)[C@H](O)[C@@H](O)[C@H](O)[C@H](O)CO [D-Gluconic acid] | – | – | – | Relative activity (%) [5]: 0% |

| Compound | Relative activity (%) ([1]; metal 0.19 mM) | Relative activity (%) ([1]; metal 0.38 mM) | Relative activity (%) ([1]; metal 0.89 mM) | other results |
| --- | --- | --- | --- | --- |
| NN [Hydrazine monohydrate] | – | – | – | Relative activity (%) ([2]; inhibitor 1.0 mM): 100% |
| [N-]=[N+]=[N-] [Sodium azide] | – | – | – | Relative activity (%) ([2]; inhibitor 0.96 mM): 100%; Relative activity (%) ([2]; inhibitor 1.89 mM): 97.6%; Relative activity (%) ([2]; inhibitor 4.46 mM): 97.6% |
| O=C[C@H](O)[C@@H](O)[C@@H](O)[C@H](O)CO [D-Galactose] | – | – | – | Relative activity (%) [5]: 0% |
| [Cl-].[Cl-].[Zn+2] [ZnCl2] | 88 | 88 | 80 | – |
| O.O.O.O.O.O.O.O=S(=O)([O-])[O-].[Co+2] [CoSO4.7H2 O] | 96 | 108 | 88 | – |
| O=C(O)CN(CCN(CC(=O)O)CC(=O)O)CC(=O)O [EDTA] | – | – | – | Relative activity (%) [2]: 95.2% and 100% and 90.5% |
| [Cu+2] [Cu^2+] | – | – | – | inhibition of the enzyme by metal ion [1]: strong inhibition |
| O=C[C@H](O)[C@@H](O)[C@H](O)CO [D-Xylose] | – | – | – | activity of GLDH on substrate [5]: highly active; Relative activity (%) [5]: 110.6% |
| O=C(O)c1cc[c]([Hg][Cl])cc1 [PCMB, p-chloro-mercuribenzoate] | – | – | – | Relative activity (%) ([2]; inhibitor 0.96 mM): 90.5%; Relative activity (%) ([2]; inhibitor 1.89 mM): 102.4%; Relative activity (%) ([2]; inhibitor 4.46 mM): 100% |
| O.O.O.O.O.O.[Cl-].[Cl-].[Co+2] [CoCl2.6H2 O] | 102 | 110 | 100 | – |
| O=C[C@@H](O)[C@@H](O)[C@H](O)[C@@H](O)CO [L-Gulose] | – | – | – | Relative activity (%) [5]: 0% |
| O.O.O.O.O.O.O.O=S(=O)([O-])[O-].[Ni+2] [NiSO4.7H2 O] | 96 | 96 | 88 | – |
| O=C1O[C@H]([C@@H](O)CO)[C@@H](O)[C@@H]1O [L-Galactono-r-lactone, L-galactono-gamma-lactone] | – | – | – | activity of GLDH on substrate [5]: does not use L-galactono-gamma-lactone as a substrate; Relative activity (%) [5]: 0% |
| O.O.O.O.O.O.O.O=S(=O)([O-])[O-].[Mg+2] [MgSO4.7H2 O] | 92 | 96 | 92 | – |
| CCN1C(=O)C=CC1=O [N-Ethyl-maleimide] | – | – | – | Relative activity (%) ([2]; inhibitor 0.96 mM): 95.2%; Relative activity (%) ([2]; inhibitor 1.89 mM): 100%; Relative activity (%) ([2]; inhibitor 4.46 mM): 100% |
| O.O.O.O.O.O.[Cl-].[Cl-].[Mg+2] [MgCl2.6H2 O] | 96 | 96 | 96 | – |
| O.O.O.O.O.O.O.O=S(=O)([O-])[O-].[Zn+2] [ZnSO4.7H2 O] | 88 | 88 | 76 | – |
| O=S(=O)([O-])[O-].[Cu+2] [CuSO4] | 92 | 24 | 12 | – |
| O.O.O.O.O=[N+]([O-])[O-].O=[N+]([O-])[O-].[Ca+2] [Ca(NO3)2.4H2 O] | 100 | 100 | 96 | – |
| O=C[C@H](O)[C@H]1OC(=O)[C@@H](O)[C@H]1O [D-Glucurono-r-lactone] | – | – | – | activity of GLDH on substrate [5]: weakly active; Relative activity (%) [5]: 6.38% |
